Source: paper PMC11172662, “Anticancer Effect of Hemin through ANO1 Inhibition in Human Prostate Cancer Cells” (International Journal of Molecular Sciences, 2024)

Tests used:
[1] = biological target: T1, ANO1 (anoctamin1, TMEM16A) (Homo sapiens, UniProt Q5XXA6); experiment: YFP fluorescence quenching assay in FRT cells expressing human ANO1; confirmed by short-circuit current (PC-3 cells IC50 […]); type: cell-based
T1 sequence (Q5XXA6 1-986): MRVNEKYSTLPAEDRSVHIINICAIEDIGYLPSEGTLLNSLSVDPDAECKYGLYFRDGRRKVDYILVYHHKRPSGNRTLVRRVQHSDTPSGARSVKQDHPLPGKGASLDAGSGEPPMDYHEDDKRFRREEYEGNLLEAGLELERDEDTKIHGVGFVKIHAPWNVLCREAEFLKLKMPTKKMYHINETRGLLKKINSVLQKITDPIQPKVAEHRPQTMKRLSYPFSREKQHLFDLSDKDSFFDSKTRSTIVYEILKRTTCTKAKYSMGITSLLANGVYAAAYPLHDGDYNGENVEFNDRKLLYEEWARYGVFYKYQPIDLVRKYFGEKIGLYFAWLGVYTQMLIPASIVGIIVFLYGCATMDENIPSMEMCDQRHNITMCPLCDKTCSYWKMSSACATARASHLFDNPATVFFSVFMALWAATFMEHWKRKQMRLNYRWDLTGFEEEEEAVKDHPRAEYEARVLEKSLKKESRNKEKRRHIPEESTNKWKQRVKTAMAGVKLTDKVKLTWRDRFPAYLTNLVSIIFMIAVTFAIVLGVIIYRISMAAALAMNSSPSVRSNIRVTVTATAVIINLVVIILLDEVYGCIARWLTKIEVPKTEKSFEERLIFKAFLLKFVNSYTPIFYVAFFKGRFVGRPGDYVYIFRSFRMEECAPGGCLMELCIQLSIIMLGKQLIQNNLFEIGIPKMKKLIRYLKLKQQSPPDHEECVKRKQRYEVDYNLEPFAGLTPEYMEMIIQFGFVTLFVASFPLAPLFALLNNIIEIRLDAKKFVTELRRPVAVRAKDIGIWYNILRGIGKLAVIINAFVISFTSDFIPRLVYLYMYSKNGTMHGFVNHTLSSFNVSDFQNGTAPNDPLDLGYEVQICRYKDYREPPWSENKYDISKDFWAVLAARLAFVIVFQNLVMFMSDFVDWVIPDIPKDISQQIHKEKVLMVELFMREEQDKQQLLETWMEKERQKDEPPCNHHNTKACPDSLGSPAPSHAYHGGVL

ANO2 = biological target: T2, ANO2 (Homo sapiens, UniProt Q9NQ90); experiment: YFP fluorescence quenching assay in FRT cells expressing human ANO2; type: cell-based
T2 sequence (Q9NQ90 1-998): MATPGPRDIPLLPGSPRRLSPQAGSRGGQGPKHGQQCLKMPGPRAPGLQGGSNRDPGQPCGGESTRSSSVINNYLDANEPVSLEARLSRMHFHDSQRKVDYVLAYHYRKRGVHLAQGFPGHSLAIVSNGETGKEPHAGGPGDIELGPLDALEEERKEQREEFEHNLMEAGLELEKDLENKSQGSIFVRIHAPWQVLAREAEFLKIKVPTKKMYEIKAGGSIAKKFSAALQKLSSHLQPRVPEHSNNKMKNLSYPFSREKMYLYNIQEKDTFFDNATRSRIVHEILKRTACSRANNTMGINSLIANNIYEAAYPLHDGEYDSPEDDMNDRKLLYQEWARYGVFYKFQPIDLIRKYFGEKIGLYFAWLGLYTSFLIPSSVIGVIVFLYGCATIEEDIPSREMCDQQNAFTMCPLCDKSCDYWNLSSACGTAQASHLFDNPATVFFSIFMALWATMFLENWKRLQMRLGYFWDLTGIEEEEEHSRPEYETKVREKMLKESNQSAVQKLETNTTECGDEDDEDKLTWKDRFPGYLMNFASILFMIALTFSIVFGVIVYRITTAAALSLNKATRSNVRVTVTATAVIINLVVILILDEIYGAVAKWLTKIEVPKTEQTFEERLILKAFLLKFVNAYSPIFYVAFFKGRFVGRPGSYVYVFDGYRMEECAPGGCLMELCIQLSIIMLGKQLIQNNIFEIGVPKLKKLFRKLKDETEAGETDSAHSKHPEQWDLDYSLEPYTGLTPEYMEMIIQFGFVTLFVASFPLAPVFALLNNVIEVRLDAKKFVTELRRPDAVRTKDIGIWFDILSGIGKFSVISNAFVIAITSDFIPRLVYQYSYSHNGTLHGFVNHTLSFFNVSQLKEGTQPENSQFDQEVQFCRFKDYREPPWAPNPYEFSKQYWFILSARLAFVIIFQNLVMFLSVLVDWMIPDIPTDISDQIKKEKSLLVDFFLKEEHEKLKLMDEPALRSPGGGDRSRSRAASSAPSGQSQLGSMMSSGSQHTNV

For C=CC1=C(C)C2=Cc3c(C=C)c(C)c4[n]3[Fe]([Cl])[n]3c(c(C)c(CCC(=O)O)c3=CC3=NC(=C4)C(C)=C3CCC(=O)O)=CC1=N2 [hemin], which IC50 [1] is on record?
Its IC50 is 510 nM.

What about the IC50 (ANO2) of the same molecule?
The IC50 was 4090 nM.
